The values below come from ChEMBL document CHEMBL1151162, “Coumarins from Opopanax chironium. New dihydrofuranocoumarins and differential induction of apoptosis by imperatorin and heraclenin” (J Nat Prod, 2004).

Holding throughout (format): functional, cell-based
Test [1] relates to Jurkat. Put plainly: Induction of apoptosis in human Jurkat cells assessed as hypodiploidic cells after 72 hrs.
For test [2], the system named is Jurkat. Put plainly: Induction of DNA fragmentation at G2/M phase in human Jurkat cells after 72 hrs by propidium iodide and FITC-dUTP double staining.
Test [3] concerns Jurkat. Kind of test: Induction of cell cycle arrest in human Jurkat cells assessed as accumulation at G2/M phase after 48 hrs.
Test [4] concerns Jurkat. Put plainly: Induction of cell cycle arrest in human Jurkat cells assessed as accumulation at G2/M phase at 25 ug/mL after 48 hrs.
Test [5] has as its system Jurkat. Put plainly: Induction of DNA fragmentation at G1/S phase in human Jurkat cells after 72 hrs by propidium iodide and FITC-dUTP double staining.

Molecules are shown by their SMILES. Activity calls are given as the source filed them. The calls are words filed in the database; no cut-off is given here.

On to `CC1(C)O[C@@H]1COc1c2occc2cc2ccc(=O)oc12`, for which the result with Jurkat [1], with Jurkat [2] and with Jurkat [3] was Active.

Consider `CC(C)=CCOc1c2occc2cc2ccc(=O)oc12`, for which the result in the test on Jurkat [4] and with Jurkat [3] was inactive. Moreover, in the test with Jurkat [5], the outcome was Active.
